Test results taken from US9150510B2, “Amino acid derivative” (NIPPON ZOKI PHARMACEUTICAL CO., LTD., priority 2008, dated 2015).

What was measured:
Assay type in all cases: in vivo
Chung model rat = assay: Analgesic efficacy test (2): Chung model rat, neuropathic pain model (allodynia, von Frey filament); conditions: Table 13, Wistar male rats, L5 spinal nerve ligation, mean ± standard error
Procedure: An analgesic efficacy test was conducted using a Chung model rat, a neuropathic pain model. Using Wistar male rats after passing 9-week old as an experimental animal, a model rat was prepared in accordance with the method of Kim and Chung (Pain, 50, 355-363, 1992). Specifically, left L5 spinal nerves of rats were exposed under anesthetization with pentobarbital (35 mg/kg, intraperitoneal administration), and firmly ligated with 5-0 silk yarn at L5 dorsal root ganglion peripheral side. The animals were placed in a transparent acrylic cage of which bottom was wire netted The measurement of allodynia was carried out using von Frey filament (manufactured by North Coast Medical Inc.) and a 50% reaction threshold was calculated according to an up-down method, in accordance with methods of Chaplan et al. (J. Neurosci. Method, 53, 55-63, 1994) and Lee et al. (J. Neurophysiol., 81, 2226-2233, 1999). The 50% reaction thresholds were measured twice before injury of the spinal nerve, and those animals of which thresholds were outside the standard were removed from the operation of spinal nerve injury. On or after 14 days from the spinal nerve injury, a 50% reaction threshold was measured, and those showing thresholds of 1 g or more and less than 4 g were used as experimental animal. The group was constituted by 7 rats per group so that an average of a 50% reaction threshold for each group would be nearly even.
A solution or suspension prepared by dissolving or suspending a compound of the present invention in a 0.5% (w/v) aqueous CMC-Na solution was orally administered as a test substance in a single dose while, a 0.5% (w/v) aqueous CMC-Na solution was administered in the same manner to the control group for nerve injury. After 30 minutes from the administration, the measurement of allodynia was carried out, and a 50% reaction threshold (mean±standard error) was calculated. In the test for significance difference, Baltlett's test was carried out in the comparison between multiple groups of the group administered with test substance with the control group for nerve injury. In the case of homoscedasticity, Dunnett's multiple comparison test of parametrics, and in the case of heteroscedasticity, Dunnett's multiple comparison test of non-parametrics were used. In all cases, significance difference was considered to be found at P<0.05.

[1] = Test of blood kinetics in the rats; conditions: rat, plasma, 2 mg/kg, fasted Wistar male rats, oral single dose of mixed solution of five compounds, each compound 2 mg/5 mL/kg, n=5, LC-MS; for AUC(0-inf): read-out: AUC0-∞ (area under the curve for concentration in blood, time 0 to infinite hours); for Cmax: read-out: Cmax (maximum concentration in plasma)
Procedure: Ten milligrams of a compound of the present invention was properly converted to a sodium salt with the same amount of sodium hydroxide, where necessary, and each was dissolved in 5 mL of water. Five compounds each among these aqueous solutions of the compounds of the present inventions were mixed, to prepare a mixed solution containing 0.4 mg/mL each of each compound. Six-week old Wistar SPF male rats that were fasted were orally administered with the mixed solution in a single dose using a gavage tube (each compound 2 mg/5 mL/kg, n=5). At time points of 0.25, 0.5, 1, 2, 4, and 8 hours after the administration, about 150 μL of blood was collected using a heparin-added capillary tube from veins of rat tails. The capillary tubes were centrifuged to collect the plasma. The plasma sample was deprotenized and the supernatant was diluted to prepare each of measurement sample solutions. The concentration of the compound of the present invention in each of measurement sample solutions was quantified using LC-MS, and Cmax (maximum concentration in plasma) and AUC (area under the curve for concentration in blood, time 0 to infinite (∞) hours) of the compounds of the present invention were calculated.

ddY-type mice = assay: Analgesic efficacy test (1): acetic acid writhing test (nociceptive pain model animal); conditions: Mus musculus, 25 min, writhing number, male ddY mice, acetic acid i.p. 25 min after administration, mean ± standard error, read-out: Percent Suppression (%); for inhibition in vivo at 10 mg/kg: oral single dose 10 mg/kg; for inhibition in vivo at 100 mg/kg: oral single dose 100 mg/kg
Excerpt: A compound of the present invention was orally administered to mice, to carry out an analgesic efficacy test according to acetic acid writhing test (nociceptive pain model animal). As an experimental animal, 4-week old male ddY-type mice were previously bred, and thereafter 8 mice per one group were used in the experiment. A solution or suspension prepared by dissolving or suspending a compound of the present invention in a 0.5% (w/v) aqueous CMC-Na solution was orally administered as a test substance in a single dose. While, to a control group, a 0.5% (w/v) aqueous CMC-Na solution was administered in the same manner. After 25 minutes from administration, the mice were intraperitoneally administered with a 0.7% (v/v) acetic acid/physiological saline at the dose of 10 mL/kg. From 5 minutes thereafter, writhing number in a 10-minute period was counted, and a suppressive rate for each individual (mean±standard error) was calculated by the following formula: […]
In the test for significance difference, Baltlett's test was carried out in the comparison between multiple groups of the group administered with test substance with the control group. In the case of homoscedasticity, Dunnett's multiple comparison test of parametrics, and in the case of heteroscedasticity, Dunnett's multiple comparison test of non-parametrics were used. In addition, in the test of dose dependency, Jockheere-Terpstra's test was used. In all cases, significance difference was considered to be found at P<0.05.

| Compound | 50% Reaction Threshold (g), Group Administered with Test Substance, 30 Min. After Administration (Chung model rat; oral single dose 10 mg/kg) [g] | AUC(0-inf) [1] [ng·h/mL] | Cmax [1] [ng/mL] | inhibition in vivo at 10 mg/kg (ddY-type mice) [%] | inhibition in vivo at 100 mg/kg (ddY-type mice) [%] | 50% Reaction Threshold (g), Group Administered with Test Substance, 30 Min. After Administration (Chung model rat; oral single dose 1 mg/kg) [g] | inhibition in vivo at 3 mg/kg (ddY-type mice; oral single dose 3 mg/kg) [%] |
| --- | --- | --- | --- | --- | --- | --- | --- |
| C=CC(=O)N[C@@H](Cc1c[nH]c2ccccc12)C(=O)O [Compound 1, N^α-Acryloyl-L-tryptophan] | 11.18 ± 1.74 | 24200 | 7100 | 25.7 ± 6.3 |  |  |  |
| O=C(C=Cc1ccccc1O)N[C@@H](Cc1c[nH]c2ccccc12)C(=O)O [Compound 2, N^α-[3-(2-Hydroxyphenyl)acryloyl]-L-tryptophan] | 11.64 ± 1.81 |  |  | 41.8 ± 4.1 |  |  |  |
| O=C(C=Cc1cccc(F)c1)N[C@@H](Cc1c[nH]c2ccccc12)C(=O)O [Compound 4, N^α-[3-(3-Fluorophenyl)acryloyl]-L-tryptophan] | 10.73 ± 1.59 | 28700 | 4300 |  | 42.4 ± 8.3 |  |  |
| O=C(C=Cc1ccc(F)cc1)N[C@@H](Cc1c[nH]c2ccccc12)C(=O)O [Compound 5, N^α-[3-(4-Fluorophenyl)acryloyl]-L-tryptophan] | 6.87 ± 1.28 | 14600 | 2300 | 51.3 ± 10.9 |  |  |  |
| O=C(C=Cc1ccccc1)N[C@@H](Cc1c[nH]c2ccccc12)C(=O)O [Compound 8, N^α-(3-Phenylacryloyl)-L-tryptophan] | 8.39 ± 1.30 | 21900 | 5000 | 67.7 ± 10.3 |  |  |  |
| N#Cc1ccccc1C=CC(=O)N[C@@H](Cc1c[nH]c2ccccc12)C(=O)O [Compound 9, N^α-[3-(2-Cyanophenyl)acryloyl]-L-tryptophan] |  |  |  | 41 ± 12.9 |  | 6.28 ± 0.42 |  |
| O=C(C=Cc1ccccc1C(F)(F)F)N[C@@H](Cc1c[nH]c2ccccc12)C(=O)O [Compound 10, N^α-[3-(2-Trifluoromethylphenyl)acryloyl]-L-tryptophan] | 6.73 ± 1.26 |  |  | 41.6 ± 9.6 |  |  |  |
| COc1ccccc1C=CC(=O)N[C@@H](Cc1c[nH]c2ccccc12)C(=O)O [Compound 11, N^α-[3-(2-Methoxyphenyl)acryloyl]-L-tryptophan] | 10.55 ± 1.50 | 10600 | 1700 |  | 60.9 ± 5.9 |  |  |
| O=C(C=Cc1c(F)cccc1F)N[C@@H](Cc1c[nH]c2ccccc12)C(=O)O [Compound 13, N^α-[3-(2,6-Difluorophenyl)acryloyl]-L-tryptophan] | 9.94 ± 1.56 | 46300 | 7400 | 52.9 ± 7.7 |  |  |  |
| O=C(C=Cc1ccc(F)cc1F)N[C@@H](Cc1c[nH]c2ccccc12)C(=O)O [Compound 14, N^α-[3-(2,4-Difluorophenyl)acryloyl]-L-tryptophan] | 9.38 ± 1.68 | 33900 | 4800 | 43.2 ± 10.9 |  |  |  |
| O=C(C=Cc1cc(C(F)(F)F)cc(C(F)(F)F)c1)N[C@@H](Cc1c[nH]c2ccccc12)C(=O)O [Compound 16, N^α-{3-[3,5-Bis(trifluoromethyl)phenyl]acryloyl}-L-tryptophan] | 8.38 ± 1.07 |  |  |  | 69 ± 4.9 |  |  |
| N#Cc1cccc(C=CC(=O)N[C@@H](Cc2c[nH]c3ccccc23)C(=O)O)c1 [Compound 17, N^α-[3-(3-Cyanophenyl)acryloyl]-L-tryptophan] | 12.99 ± 1.53 |  |  | 54.7 ± 6.8 |  |  |  |
| O=C(C=Cc1ccc(Oc2ccccc2)cc1)N[C@@H](Cc1c[nH]c2ccccc12)C(=O)O [Compound 18, N^α-[3-(4-Phenoxyphenyl)acryloyl]-L-tryptophan] | 11.73 ± 1.60 |  |  | 56.5 ± 4.2 |  |  |  |
| N#Cc1ccc(C=CC(=O)N[C@@H](Cc2c[nH]c3ccccc23)C(=O)O)cc1 [Compound 19, N^α-[3-(4-Cyanophenyl)acryloyl]-L-tryptophan] |  |  |  |  | 52.2 ± 6.1 | 5.16 ± 0.41 |  |
| O=C(N[C@@H](Cc1c[nH]c2ccccc12)C(=O)O)c1cc2ccccc2oc1=O [Compound 21, N^α-(Coumarin-3-carbonyl)-L-tryptophan] |  |  |  | 38.3 ± 6.5 |  | 3.93 ± 0.16 |  |
| NC(=O)[C@H](Cc1c[nH]c2ccccc12)NC(=O)C=Cc1ccccc1F [Compound 23, N^α-[3-(2-Fluorophenyl)acryloyl]-L-tryptophanamide] | 9.37 ± 1.56 |  |  |  | 48.2 ± 11.5 |  |  |
| COc1ccc(C[C@H](NC(=O)C=Cc2ccccc2O)C(=O)O)cc1 [Compound 39, N-[3-(2-Hydroxyphenyl)acryloyl]-O^4-methyl-L-tyrosine] | 11.44 ± 1.70 |  |  |  |  |  |  |
| COc1ccc(C[C@H](NC(=O)C=Cc2ccc(F)cc2F)C(=O)O)cc1 [Compound 51, N-[3-(2,4-Difluorophenyl)acryloyl]-O^4-Methyl-L-Tyrosine] |  | 116000 | 33000 | 42.2 ± 9.1 |  |  |  |
| COc1ccc(C[C@H](NC(=O)C=Cc2cc(F)ccc2F)C(=O)O)cc1 [Compound 52, N-[3-(2,5-Difluorophenyl)acryloyl]-O^4-methyl-L-tyrosine] |  | 38200 | 18000 |  |  |  | 50.9 ± 7.4 |
| COc1ccc(C[C@H](NC(=O)C=Cc2ccc(C#N)cc2)C(=O)O)cc1 [Compound 56, N-[3-(4-Cyanophenyl)acryloyl]-O^4-methyl-L-tyrosine] |  | 7000 | 3500 |  | 48.7 ± 10.1 |  |  |
| N=C(N)NCCC[C@H](NC(=O)C=Cc1ccccc1F)C(=O)O [Compound 64, N^α-[3-(2-Fluorophenyl)acryloyl]-L-arginine] |  |  |  | 50.6 ± 7.5 |  | 6.21 ± 1.04 |  |
| CSCC[C@H](NC(=O)C=Cc1ccccc1F)C(=O)O [Compound 67, N-[3-(2-Fluorophenyl)acryloyl]-L-methionine] |  |  |  | 43.5 ± 6.9 |  | 4.94 ± 0.61 |  |
